Assay: excess molar enthalpy (molar enthalpy of mixing); xn = mol fraction of the nth substance listed
Conditions: 298.15 K, Liquid, Flow calorimetry

COC=O [methyl methanoate] + CCCCCO
Conditions	excess molar enthalpy [kcal/mol]
5000 kPa, x1 = 0.0507	0.1315
5000 kPa, x1 = 0.0997	0.2364
5000 kPa, x1 = 0.1503	0.3231
5000 kPa, x1 = 0.2004	0.3893
5000 kPa, x1 = 0.2494	0.4395
5000 kPa, x1 = 0.2991	0.4781
5000 kPa, x1 = 0.3496	0.5052
5000 kPa, x1 = 0.4005	0.5217
5000 kPa, x1 = 0.4488	0.5278
5000 kPa, x1 = 0.4998	0.5254
5000 kPa, x1 = 0.5506	0.5101
5000 kPa, x1 = 0.6009	0.493
5000 kPa, x1 = 0.6503	0.4643
5000 kPa, x1 = 0.6986	0.4309
5000 kPa, x1 = 0.7492	0.3859
5000 kPa, x1 = 0.7983	0.3299
5000 kPa, x1 = 0.8497	0.2628
5000 kPa, x1 = 0.8992	0.181
5000 kPa, x1 = 0.9509	0.08525
10000 kPa, x1 = 0.0505	0.1287
10000 kPa, x1 = 0.0994	0.2336
10000 kPa, x1 = 0.1499	0.3196
10000 kPa, x1 = 0.1998	0.386
10000 kPa, x1 = 0.251	0.438
10000 kPa, x1 = 0.3009	0.476
10000 kPa, x1 = 0.3488	0.5032
10000 kPa, x1 = 0.3997	0.5192
10000 kPa, x1 = 0.4509	0.5253
10000 kPa, x1 = 0.499	0.5227
10000 kPa, x1 = 0.5498	0.5116
10000 kPa, x1 = 0.6001	0.4941
10000 kPa, x1 = 0.6496	0.4661
10000 kPa, x1 = 0.7017	0.4273
10000 kPa, x1 = 0.7486	0.3851
10000 kPa, x1 = 0.802	0.3276
10000 kPa, x1 = 0.8493	0.2631
10000 kPa, x1 = 0.8988	0.1821
10000 kPa, x1 = 0.9507	0.0824

COC=O [methyl methanoate] + CC(C)O
Conditions	excess molar enthalpy [kcal/mol]
5000 kPa, x1 = 0.0399	0.08475
5000 kPa, x1 = 0.0822	0.1674
5000 kPa, x1 = 0.1235	0.2356
5000 kPa, x1 = 0.1656	0.2947
5000 kPa, x1 = 0.2102	0.3451
5000 kPa, x1 = 0.2556	0.3878
5000 kPa, x1 = 0.3	0.4214
5000 kPa, x1 = 0.3471	0.4472
5000 kPa, x1 = 0.3951	0.4659
5000 kPa, x1 = 0.444	0.4756
5000 kPa, x1 = 0.4938	0.4777
5000 kPa, x1 = 0.5447	0.4726
5000 kPa, x1 = 0.5965	0.4596
5000 kPa, x1 = 0.6494	0.4357
5000 kPa, x1 = 0.7055	0.3992
5000 kPa, x1 = 0.7606	0.3557
5000 kPa, x1 = 0.8191	0.2934
5000 kPa, x1 = 0.8766	0.223
5000 kPa, x1 = 0.9376	0.1214
10000 kPa, x1 = 0.0398	0.0857
10000 kPa, x1 = 0.082	0.1675
10000 kPa, x1 = 0.1232	0.2355
10000 kPa, x1 = 0.1651	0.2936
10000 kPa, x1 = 0.2096	0.3446
10000 kPa, x1 = 0.2549	0.3862
10000 kPa, x1 = 0.2993	0.4185
10000 kPa, x1 = 0.3463	0.4443
10000 kPa, x1 = 0.3943	0.4624
10000 kPa, x1 = 0.4432	0.4723
10000 kPa, x1 = 0.493	0.4745
10000 kPa, x1 = 0.5439	0.4703
10000 kPa, x1 = 0.5957	0.4555
10000 kPa, x1 = 0.6487	0.4324
10000 kPa, x1 = 0.7048	0.3963
10000 kPa, x1 = 0.76	0.351
10000 kPa, x1 = 0.8186	0.2901
10000 kPa, x1 = 0.8762	0.2164
10000 kPa, x1 = 0.9374	0.118

COC=O [methyl methanoate] + CCCCO
Conditions	excess molar enthalpy [kcal/mol]
5000 kPa, x1 = 0.0501	0.1057
5000 kPa, x1 = 0.1	0.1987
5000 kPa, x1 = 0.1496	0.2737
5000 kPa, x1 = 0.2	0.3348
5000 kPa, x1 = 0.2496	0.3818
5000 kPa, x1 = 0.2999	0.4177
5000 kPa, x1 = 0.3508	0.4426
5000 kPa, x1 = 0.4004	0.459
5000 kPa, x1 = 0.4503	0.4661
5000 kPa, x1 = 0.5003	0.4654
5000 kPa, x1 = 0.5505	0.4566
5000 kPa, x1 = 0.6006	0.4399
5000 kPa, x1 = 0.6505	0.4136
5000 kPa, x1 = 0.7002	0.3807
5000 kPa, x1 = 0.7494	0.3421
5000 kPa, x1 = 0.8004	0.2897
5000 kPa, x1 = 0.8509	0.2321
5000 kPa, x1 = 0.9006	0.162
5000 kPa, x1 = 0.9495	0.0826
10000 kPa, x1 = 0.05	0.1054
10000 kPa, x1 = 0.0997	0.1979
10000 kPa, x1 = 0.1506	0.2747
10000 kPa, x1 = 0.1994	0.3337
10000 kPa, x1 = 0.2505	0.3818
10000 kPa, x1 = 0.2992	0.4163
10000 kPa, x1 = 0.35	0.4416
10000 kPa, x1 = 0.3996	0.4564
10000 kPa, x1 = 0.4495	0.464
10000 kPa, x1 = 0.4995	0.4626
10000 kPa, x1 = 0.5497	0.4531
10000 kPa, x1 = 0.5998	0.4355
10000 kPa, x1 = 0.6498	0.4104
10000 kPa, x1 = 0.6995	0.3791
10000 kPa, x1 = 0.7511	0.337
10000 kPa, x1 = 0.7999	0.288
10000 kPa, x1 = 0.8505	0.2283
10000 kPa, x1 = 0.9003	0.1592
10000 kPa, x1 = 0.9493	0.07925

Source: the NIST ThermoML archive (doi:10.1016/j.tca.2005.11.041)
